{"source": "patent US6476062B2", "about": "“Chemokine receptor antagonists” (Schering Corporation, priority 2000, dated 2002)", "biological_target": "T1, human CCR5 chemokine receptor (Homo sapiens, UniProt P51681)", "T1 construct": "expressed in transfected cells; host or cells: NIH 3T3 cells (mouse fibroblasts) expressing human CCR5; membranes prepared from them", "T1 sequence (P51681 whole entry)": "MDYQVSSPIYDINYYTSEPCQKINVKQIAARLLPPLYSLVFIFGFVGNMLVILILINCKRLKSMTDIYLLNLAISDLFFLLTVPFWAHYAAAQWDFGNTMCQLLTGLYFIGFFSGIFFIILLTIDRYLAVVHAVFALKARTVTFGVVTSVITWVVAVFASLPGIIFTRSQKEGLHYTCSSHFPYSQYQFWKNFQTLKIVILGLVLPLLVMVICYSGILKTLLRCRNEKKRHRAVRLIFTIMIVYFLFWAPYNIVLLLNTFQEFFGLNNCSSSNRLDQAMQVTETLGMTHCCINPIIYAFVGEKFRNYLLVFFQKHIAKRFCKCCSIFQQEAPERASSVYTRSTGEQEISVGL", "experiment": "CCR5 membrane binding assay (inhibition of 125I-RANTES binding)", "settings": "membranes from NIH 3T3 cells expressing human CCR5; 0.05 nM 125I Rantes; one hour; replicates of four; read-out: IC50, 50 percent inhibition of total membrane binding of 125I Rantes", "description": "A high throughput screen utilizing a CCR5 membrane binding assay identifies inhibitors of RANTES binding. This assay utilizes membranes prepared from NIH 3T3 cells expressing the human CCR5 chemokine receptor which have the ability to bind to RANTES, a natural ligand for the receptor. Using a 96-well plate format, membrane preparations are incubated with ^125I-RANTES in the presence or absence of compound for one hour. Compounds are serially diluted over a wide range of 0.001 ug/ml to 1 ug/ml and tested in triplicates. Reaction cocktails are harvested through glass fiber filters, and washed thoroughly. Total counts for replicates are averaged and data reported as the concentration required to inhibit 50 percent of total ^125I-RANTES binding. Compounds with potent activity in the membrane binding assay are further characterized in secondary cell-based HIV-1 entry and replication assays.\nThe activity of the compound of formula II was evaluated in the CCR5 membrane binding assay. The assay utilizes membranes prepared from NIH 3T3 cells which express human CCR5 chemokine receptor. RANTES (Regulated upon Activation, Normal T cell Expressed and Secreted) is a natural ligand for the CCR5. […] Total counts for replicates are averaged and 50 percent inhibition of total membrane binding of ^125I Rantes is determined.", "data": [{"compound": "C/C=C(\\C)[C@@H]1C=C[C@@H]2C[C@H](C)C[C@H](C)[C@H]2[C@@H]1/C(O)=C1/C(=O)N[C@H](C[C@@](C)(O)C(=O)O)C1=O", "note": "[Compound II]", "values": [{"measurement": "IC50", "value": 0.0786, "unit": "µM"}]}]}
